Measured values taken from patent US20050209278A1, “Piperidinyl- and piperazinyl-sulfonylmethyl hydroxamic acids and their use as protease inhibitors” (priority 2002, published 2005).
pKi: −log10 of the molar value.

Target: T1, MMP-9 (Homo sapiens, UniProt P14780)
T1 construct: made in house; host or cells: MMP-9-transfected HT1080 cells (spent media)
Assay: In vitro MMP inhibition, Ki determination (fluorogenic substrate II)
Assay type: biochemical
Settings: value not in parenthesis
Method in brief: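 HT1080-derived MMP-9, activated with APMA, trypsin or MMP-3, incubated 1 hr at room temperature with inhibitor and 4 μM fluorogenic substrate II (at or below Km) in pH 7.5 Tris/NaCl/CaCl2 buffer; ex 330/em 420 nm. Ki from Morrison-equation regression, without substrate correction.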

T1 sequence (P14780 107-707 limits assumed): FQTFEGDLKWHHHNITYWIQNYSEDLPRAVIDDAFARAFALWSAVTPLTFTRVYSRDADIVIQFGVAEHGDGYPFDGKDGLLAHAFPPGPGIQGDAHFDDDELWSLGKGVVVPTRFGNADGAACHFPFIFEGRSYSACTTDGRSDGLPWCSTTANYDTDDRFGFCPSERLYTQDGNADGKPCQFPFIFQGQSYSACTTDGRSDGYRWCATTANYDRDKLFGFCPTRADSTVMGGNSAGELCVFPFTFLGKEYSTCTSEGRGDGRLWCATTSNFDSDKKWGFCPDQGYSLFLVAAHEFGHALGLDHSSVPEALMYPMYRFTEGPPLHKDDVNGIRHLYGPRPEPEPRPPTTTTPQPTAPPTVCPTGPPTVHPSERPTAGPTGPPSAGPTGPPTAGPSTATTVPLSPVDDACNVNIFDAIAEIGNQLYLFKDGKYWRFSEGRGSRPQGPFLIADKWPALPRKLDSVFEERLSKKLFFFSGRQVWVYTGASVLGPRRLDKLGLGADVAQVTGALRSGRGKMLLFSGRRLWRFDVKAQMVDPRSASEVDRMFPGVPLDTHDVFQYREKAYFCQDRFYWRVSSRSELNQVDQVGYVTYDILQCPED

Structure (SMILES)	pKi
COc1ccc(-c2ccc(N3CCN(S(=O)(=O)C4(C(=O)NO)CCOCC4)CC3)nc2)cc1 [Example 61]	7.91
O=C(NO)C1(S(=O)(=O)N2CCN(c3ccc(OC(F)(F)C(F)F)cc3)CC2)CCSCC1 [Example 62]	8.82
CCCCOc1ccc(N2CCN(S(=O)(=O)C3(C(=O)NO)CC3)CC2)cc1 [Example 63]	8.11
CCCCOc1ccc(N2CCN(S(=O)(=O)C3(C(=O)NO)CCN(c4ccc(OC(F)(F)C(F)F)cc4)CC3)CC2)cc1 [Example 65]	6.89
O=C(NO)C1(S(=O)(=O)N2CCN(c3ccc4c(c3)OC(F)(F)C(F)(F)O4)CC2)CCOCC1 [Example 67]	5.86
O=C(NO)C1(S(=O)(=O)N2CCN(c3ccc(COCC(F)(F)C(F)(F)F)cc3)CC2)CCOCC1 [Example 70]	7.30
CCCCOc1ccc(N2CCN(S(=O)(=O)C3(C(=O)NO)CCN(C(=O)c4ccco4)CC3)CC2)cc1 [Example 156]	8.92
CCCCOc1ccc(N2CCN(S(=O)(=O)C3(C(=O)NO)CCN(c4nccs4)CC3)CC2)cc1 [Example 157]	8.37
CCCCOc1ccc(N2CCN(S(=O)(=O)C3(C(=O)NO)CCN(c4ncccn4)CC3)CC2)cc1 [Example 159]	8.71
CCCCOc1ccc(N2CCN(S(=O)(=O)C3(C(=O)NO)CCN(C(=O)c4cccs4)CC3)CC2)cc1 [Example 160]	8.75
Cc1ccc(N2CCC(C(=O)NO)(S(=O)(=O)N3CCN(c4ccc(OCCCC(F)(F)F)cc4)CC3)CC2)cc1 [Example 161]	6.87
O=C(NO)C1(S(=O)(=O)N2CCN(c3ccc(OCCN4CCCC4)cc3)CC2)CCOCC1 [Example 162]	6.40
CCCCOc1ccc(N2CCN(S(=O)(=O)C3(C(=O)NO)CCN(CCOC)CC3)CC2)cn1 [Example 164]	8.12
CCCCOc1c(F)cc(N2CCN(S(=O)(=O)C3(C(=O)NO)CCN(CCOC)CC3)CC2)cc1F [Example 165]	7.83
COCCN1CCC(C(=O)NO)(S(=O)(=O)N2CCN(c3ccc(OCC(C)C)c(F)c3)CC2)CC1 [Example 166]	8.65
CCCCCc1ccc(N2CCN(S(=O)(=O)C3(C(=O)NO)CCOCC3)CC2)nc1 [Example 167]	9.70
O=C(NO)C1(S(=O)(=O)N2CCN(c3ccccn3)CC2)CCOCC1 [Example 169]	8.30
O=C(NO)C1(S(=O)(=O)N2CCN(c3ccc(SC(F)(F)F)cc3)CC2)CCOCC1 [Example 170]	7.77
CCCc1ccc(N2CCN(S(=O)(=O)C3(C(=O)NO)CCN(c4ccc(C)cc4)CC3)CC2)cc1 [Example 171]	8.16

Structure (SMILES)	pKi
CCCCc1ccc(N2CCN(S(=O)(=O)C3(C(=O)NO)CCN(CCOC)CC3)CC2)cc1F [Example 173]	9.83
COCCN1CCC(C(=O)NO)(S(=O)(=O)N2CCN(c3ccc(C(C)=O)cc3)CC2)CC1 [Example 174]	7.54
CCCNC(=O)c1ccc(N2CCN(S(=O)(=O)C3(C(=O)NO)CCN(CCOC)CC3)CC2)cc1 [Example 175]	6.36
COCCN1CCC(C(=O)NO)(S(=O)(=O)N2CCN(c3ccccn3)CC2)CC1 [Example 176]	8.02
CCCCC(=O)c1ccc(N2CCN(S(=O)(=O)C3(C(=O)NO)CCN(CCOC)CC3)CC2)cc1 [Example 177]	7.73
CCCc1cnc(N2CCN(S(=O)(=O)C3(C(=O)NO)CCN(CCOC)CC3)CC2)nc1 [Example 178]	8.65
CCCCCc1ccc(N2CCN(S(=O)(=O)C3(C(=O)NO)CCN(S(N)(=O)=O)CC3)CC2)cc1 [Example 205]	6.61
CCCCCc1ccc(N2CCN(S(=O)(=O)C3(C(=O)NO)CCN(C(=O)CC)CC3)CC2)cc1 [Example 206]	9.21
Cc1ccc(-c2ccc(N3CCN(S(=O)(=O)C4(C(=O)NO)CCOCC4)CC3)cc2)cc1 [Example 207]	7.91
O=C(NO)C1(S(=O)(=O)N2CCN(c3ccc(-c4ccc(F)cc4)cc3)CC2)CCOCC1 [Example 208]	9.15
O=C(NO)C1(S(=O)(=O)N2CCN(c3cnc(CCCC(F)(F)F)cn3)CC2)CCOCC1 [Example 209]	6.80
O=C(NO)C1(S(=O)(=O)N2CCN(c3cnc(CCC(F)(F)C(F)(F)F)cn3)CC2)CCOCC1 [Example 210]	6.85
O=C(NO)C1(S(=O)(=O)N2CCN(c3ccc(OCC(F)(F)C(F)(F)F)cc3)CC2)CCOCC1 [Example 212]	8.54
CC(C)Cc1ccc(N2CCN(S(=O)(=O)C3(C(=O)NO)CCOCC3)CC2)c(F)c1 [Example 213]	7.08
CCCCc1nnc(N2CCN(S(=O)(=O)C3(C(=O)NO)CCOCC3)CC2)s1 [Example 214]	6.66
O=C(NO)C1(S(=O)(=O)N2CCN(c3nncs3)CC2)CCOCC1 [Example 215]	< 5.00
CCCc1nnc(N2CCN(S(=O)(=O)C3(C(=O)NO)CCOCC3)CC2)s1 [Example 216]	6.22
CCCCc1ccc(N2CCN(S(=O)(=O)C(C)C(=O)NO)CC2)nc1 (centres unmarked) [Example 217]	9.35
O=C(NO)C1(S(=O)(=O)N2CCN(c3cnc(CCC(F)(F)F)cn3)CC2)CCOCC1 [Example 218]	8.64

The remaining lines, values ahead:

pKi	Structure (SMILES)
9.34	CCCCCc1cnc(N2CCN(S(=O)(=O)C3(C(=O)NO)CCOCC3)CC2)cn1 [Example 219]
7.84	CCCCOc1ccc(N2CCN(S(=O)(=O)C3(C(=O)NO)CCN(c4ccc5c(c4)OCO5)CC3)CC2)cc1 [Example 221]
7.67	CCCCOc1ccc(N2CCN(S(=O)(=O)C3(C(=O)NO)CCS(=O)(=O)CC3)CC2)cc1 [Example 222]
7.18	CCCCOc1ccc(N2CCN(S(=O)(=O)C3(C(=O)NO)CCN(c4ccsc4)CC3)CC2)cc1 [Example 223]
7.55	CCCCOc1ccc(N2CCN(S(=O)(=O)C3(C(=O)NO)CCN(c4ccc(C#N)cc4)CC3)CC2)cc1 [Example 225]
7.72	CCCCOc1ccc(N2CCN(S(=O)(=O)C3(C(=O)NO)CCN(c4cccc(C)c4)CC3)CC2)cc1 [Example 226]
7.76	COCCSc1ccc(N2CCN(S(=O)(=O)C3(C(=O)NO)CCOCC3)CC2)cc1 [Example 227]
8.33	CCCCOc1ccc(N2CCN(S(=O)(=O)C3(C(=O)NO)CCN(c4ccc(OC)c(OC)c4)CC3)CC2)cc1 [Example 229]
9.06	CCCCOc1ccc(N2CCN(S(=O)(=O)C3(C(=O)NO)CCN(C(=O)N4CCN(C)CC4)CC3)CC2)cc1 [Example 230]
9.15	CCCCOc1ccc(N2CCN(S(=O)(=O)C3(C(=O)NO)CCN(C(=O)N4CCCC4)CC3)CC2)cc1 [Example 231]
8.64	CCCCOc1ccc(N2CCN(S(=O)(=O)C3(C(=O)NO)CCSCC3)CC2)cc1 [Example 232]
9.01	CCCCOc1ccc(N2CCN(S(=O)(=O)C3(C(=O)NO)CCN(CCN4CCOCC4)CC3)CC2)cc1 [Example 233]
7.47	CCOCCSc1ccc(N2CCN(S(=O)(=O)C3(C(=O)NO)CCOCC3)CC2)cc1 [Example 234]
9.05	CCCCOc1ccc(N2CCN(S(=O)(=O)C3(C(=O)NO)CCN(CCN(CC)CC)CC3)CC2)cc1 [Example 235]
8.58	CCCCCc1ccc(N2CCN(S(=O)(=O)C3(C(=O)NO)CCN(S(=O)(=O)N(C)C)CC3)CC2)cc1 [Example 236]
8.55	CCCCCc1ccc(N2CCN(S(=O)(=O)C3(C(=O)NO)CCN(S(C)(=O)=O)CC3)CC2)cc1 [Example 237]
8.60	CCCCOc1ccc(N2CCN(S(=O)(=O)C3(C(=O)NO)CCN(CCCC(F)(F)F)CC3)CC2)cc1 [Example 238]
9.34	CCCCCc1ccc(N2CCN(S(=O)(=O)C3(C(=O)NO)CCN(C(C)=O)CC3)CC2)cc1 [Example 239]
8.99	CCCCOc1ccc(N2CCN(S(=O)(=O)C3(C(=O)NO)CCN(C(=O)NC(C)(C)C)CC3)CC2)cc1 [Example 240]
8.32	CCCCOc1ccc(N2CCN(S(=O)(=O)C3(C(=O)NO)CCN(c4ccc(N(C)C)cc4)CC3)CC2)cc1 [Example 241]
8.94	CCCCOc1ccc(N2CCN(S(=O)(=O)C3(C(=O)NO)CCN(C(=O)N(CC)CC)CC3)CC2)cc1 [Example 242]
9.15	CCCCOc1ccc(N2CCN(S(=O)(=O)C3(C(=O)NO)CCN(C(=O)N4CCCCC4)CC3)CC2)cc1 [Example 243]
8.41	CCCCOc1ccc(N2CCN(S(=O)(=O)C3(C(=O)NO)CCN(C(=O)N(C(C)C)C(C)C)CC3)CC2)cc1 [Example 244]
9.23	CCCCOc1ccc(N2CCN(S(=O)(=O)C3(C(=O)NO)CCN(Cc4nccn4C)CC3)CC2)cc1 [Example 245]
8.76	CCCCOc1ccc(N2CCN(S(=O)(=O)C3(C(=O)NO)CCN(Cc4ccc(C)o4)CC3)CC2)cc1 [Example 246]
9.14	CCCCOc1ccc(N2CCN(S(=O)(=O)C3(C(=O)NO)CCN(Cc4ncc[nH]4)CC3)CC2)cc1 [Example 247]
7.95	CCCCOc1ccc(N2CCN(S(=O)(=O)C3(C(=O)NO)CCN(c4ccc(OC)cc4)CC3)CC2)cc1 [Example 249]
